Measured values taken from patent publication US9359275B2, “Natural product antibiotics and analogs thereof” (Children's Medical Center Corporation, priority 2012, dated 2016).
In brackets after ≈: the same amount, converted by molar mass. Like-named read-outs stand apart in the source and are kept apart here.

Tests used:
[1] = system: V. cholerae; assay: Growth assay in MMPyr (OD615) and plating for CFU; conditions: with the assay described
Description: The assays were carried out at 30° C. in pH-MMSuc to monitor sugar fermentation by A615 (FIGS. 5A, 5B, and 5C) or in MMPyr to monitor bacterial growth by OD615 (D, E, and F). Bacteria were exposed to compound 1 (FIGS. 5A and 5D), compound 2 (FIGS. 5B and 5E) or compound 3 (FIGS. 5C and 5F) at concentrations ranging from 14 to 383 μM.
In secondary screens, MM was also supplemented with glucose (0.5% wt/vol), thymol blue (0.006% wt/vol), and bromothymol blue (0.006% wt/vol) (pH-MM^Glu') or pyruvate (0.5% wt/vol) (MM^Pyr).
Conditions were tested in duplicate in each experiment, and two experimental replicates were performed on separate days. […] To determine whether this represented bacteriostatic or bactericidal activity, dilutions of the cell suspensions were plated on LB agar after 20 hours of growth in MM^Pyr supplemented with compound 1 at a concentration of 383 μM.

[2] = system: MRSA ATCC BAA-976; assay: MIC, microdilution broth method in CAMHB; type: cell-based, Staphylococcus aureus
[3] = system: V. cholerae PW357; assay: MIC, microdilution broth method in CAMHB; type: cell-based, Vibrio cholerae
[4] = system: E. coli ATCC 25922; assay: MIC, microdilution broth method in CAMHB; type: cell-based, Escherichia coli
[5] = system: K. pneumoniae carbapenemase positive ATCC BAA-1705; assay: MIC, microdilution broth method in CAMHB; type: cell-based, Klebsiella pneumoniae
[6] = system: M. tuberculosis H37Rv ATCC 27294; assay: MIC, microplate-based Alamar blue assay (MABA); type: cell-based, Mycobacterium tuberculosis
[7] = system: P. aeruginosa ATCC 27853; assay: MIC, microdilution broth method in CAMHB; type: cell-based, Pseudomonas aeruginosa
[8] = system: V. cholerae; assay: Medium acidification (sugar fermentation) assay in pH-MMSuc, A615; conditions: 30° C.
Description: The assays were carried out at 30° C. in pH-MMSuc to monitor sugar fermentation by A615 (FIGS. 5A, 5B, and 5C) or in MMPyr to monitor bacterial growth by OD615 (D, E, and F).
The assays were carried out at 30° C. in pH-MMSuc to monitor sugar fermentation by A615.
A minimal medium (MM) supplemented with sucrose (0.5% wt/vol), thymol blue (0.006% wt/vol) and bromothymol blue (0.006% wt/vol) (pH-MM^Suc) was used for the HTS (Houot et al., J Bacteriol (2008) 190: 311-320).
Conditions were tested in duplicate in each experiment, and two experimental replicates were performed on separate days.

[9] = Staphylococcus aureus, MRSA ATCC BAA-976, read-out: MIC
[10] = Vibrio cholerae, V. cholerae PW357, read-out: MIC
[11] = Escherichia coli, ATCC25922, E. coli ATCC 25922, read-out: MIC
[12] = Klebsiella pneumoniae, ATCCBAA1705, K. pneumoniae carbapenemase positive ATCC BAA-1705, read-out: MIC
[13] = Mycobacterium tuberculosis, M. tuberculosis H37Rv ATCC 27294, Alamar Blue Assay, ≧90% inhibition, read-out: MIC
[14] = Pseudomonas aeruginosa, ATCC27853, P. aeruginosa ATCC 27853, read-out: MIC

Row | Compound | MIC [2, 9] [µg/mL] | MIC [3, 10] [µg/mL] | MIC [4, 11] [µg/mL] | MIC [5, 12] [µg/mL] | MIC [6, 13] [µg/mL] | MIC [7, 14] [µg/mL] | also measured
1 | CCCC1=C(CO)C(=O)C=CC1=O [Compound 3, 2-(hydroxymethyl)-3-propyl benzoquinone] |  |  |  |  |  |  | antibacterial activity (in words) [1]: little to no antibacterial activity
2 | CC1(C)S[C@@H]2[C@H](NC(=O)[C@H](N)c3ccccc3)C(=O)N2[C@H]1C(=O)O [AMP, ampicillin] | > 80 | 2.5 (≈ 7.15 µM) | 2.5 (≈ 7.15 µM) | > 80 | 0.25 (≈ 0.715 µM) | > 80 | 
3 | C[C@H]1COc2c(N3CCN(C)CC3)c(F)cc3c(=O)c(C(=O)O)cn1c23 [LEVO, levofloxacin] | 0.312 (≈ 0.863 µM) | < 0.005 | 0.019 (≈ 0.0526 µM) | > 80 | 0.25 (≈ 0.692 µM) | 1.25 (≈ 3.46 µM) | 
4 | CC1(O)CCC(c2c(O)cc3c(c2O)C(=O)c2c(O)cc(O)cc2C3=O)CO1 (centres unmarked) [SC3-22-19] |  |  |  |  |  |  | sugar utilization [8]: decreased sugar utilization
5 | bactrim [TMP/SMX] |  |  |  |  |  |  | MIC ([2]; MRSA ATCC BAA-976): 0.062 µg/mL; MIC ([3]; V. cholerae PW357): >16 µg/mL; MIC ([4]; E. coli ATCC 25922): 0.125 µg/mL; MIC ([5]; K. pneumoniae carbapenemase positive ATCC BAA-1705): >16 µg/mL; MIC ([6]; M. tuberculosis H37Rv ATCC 27294, Alamar Blue Assay, ≧90% inhibition): 2 µg/mL; MIC [7]: >16 µg/mL
6 | C[C@@H](O)[C@H]1C(=O)N2C(C(=O)O)=C(SCCN=CN)C[C@H]12 [IMI, imipenem] | 1.25 (≈ 4.18 µM) | 1.25 (≈ 4.18 µM) | 1.25 (≈ 4.18 µM) | > 80 | 100 (≈ 334 µM) | 5 (≈ 16.7 µM) | 
7 | CCCc1c(O)ccc(O)c1CO [Compound 1, 2-(hydroxymethyl)-3-propyl hydroquinone] |  |  |  |  |  |  | concentration at which medium acidification was completely blocked [8]: 261 µM; concentration at which medium acidification was inhibited [8]: 134 µM; MIC ([2]; Staphylococcus aureus): 10 µg/mL (≈ 54.9 µM); MIC ([3]; Vibrio cholerae, PW357): 40 µg/mL (≈ 220 µM); MIC ([4]; Escherichia coli, ATCC25922): 80 µg/mL (≈ 439 µM); MIC ([5]; Klebsiella pneumoniae, ATCCBAA1705): > 80 µg/mL; MIC ([6]; Mycobacterium tuberculosis): 25 µg/mL (≈ 137 µM); MIC ([7]; Pseudomonas aeruginosa, ATCC27853): 80 µg/mL (≈ 439 µM)
8 | CC1Cc2c(ccc(O)c2CO)O1 (centres unmarked) [Compound 2, 5-hydroxy-4-(hydroxymethyl)-2-methyl 2,3-dihydrobenzofuran] |  |  |  |  |  |  | antibacterial activity (in words) [1]: demonstrated anti-bacterial activity
